Source: patent publication US20090030015A1, “NOVEL MULTI-CYCLIC COMPOUNDS” (REVOTAR BIOPHARMACEUTICALS AG, priority 2005, published 2009)

Tests used:
[1] = target: T1, human E-Selectin-IgG-chimera (Homo sapiens, UniProt P16581); test: Sialyl Lewis X Tyrosine Sulfate Assay (sLex TSA), E-selectin; type: binding; details: sLexTSA, in vitro inhibition at 100 μM
T1 construct: fused on or other part: human IgG Fc part, captured on the plate by goat anti human Fc antibody; a tag, no second protein
T1 sequence (P16581 22-175 limits assumed): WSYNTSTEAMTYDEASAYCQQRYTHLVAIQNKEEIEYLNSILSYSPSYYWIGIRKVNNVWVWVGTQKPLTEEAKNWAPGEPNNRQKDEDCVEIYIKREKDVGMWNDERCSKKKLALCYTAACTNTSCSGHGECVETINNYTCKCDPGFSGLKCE
Protocol: (§1) Sialyl Lewis^X Tyrosine Sulfate Assay (sLe^x TSA):
(§2) Compounds of the present invention are assayed on a molecular level for their ability to inhibit the binding of P-, L-, or E-selectin chimeric molecules to sLe^x and tyrosinesulfate residues linked to a polymeric matrix as a PSGL-1 substitute. Selected IC50-values are determined.
(§3) Microtiter plates are coated overnight in carbonate buffer pH9.6 with goat anti human Fc mAB (10 μg/ml). After washing in assay buffer (25 mM 4-(2-hydroxyethyl)-1-piperazineethanesulfonic acid (HEPES), 150 mM NaCl, 1 mM CaCl2 pH7.4) and blocking (3% bovine serum albumin (BSA) in assay buffer) plates are incubated for 2 h at 37° C. with human P-Selectin-IgG-chimera (0.61 nM respectively 150 ng/mL) or human L-Selectin-IgG-chimera (0.61 nM respectively 89 ng/mL) or human E-Selectin-IgG-chimera (0.61 nM respectively 131 ng/mL). 5 μl of sLe^x-tyrosine sulfate polyacrylamide (1 mg/ml) carrying 15% sLe^x, 10% Tyrosine-sulfate and 5% biotin is complexed with 20 μl Streptavidin-Peroxidase solution (1 mg/ml) and 25 μl assay buffer without CaCl2. For use in the assay, the ligand complex is diluted 1:10000 in assay buffer and further diluted 1:1 with varying amounts of compounds in assay buffer incl. 2% DMSO. This mixture is added to the wells precoated with E- or P-selectin. After incubation for 2 h at 37° C., wells are washed for six times with in assay buffer incl. 0.005% Polyoxyethylenesorbitan monolaurate (TWEEN 20), developed for 10-15 min with 20 μl 3,3′,5,5′-tetramethylbenzidine (TMB)/H2O2 substrate solution and stopped with 20 μl 1M H2SO4. Bound sLe^x-Tyrosine sulfate ligand complex is determined by measuring optical density at 450 nm vs. 620 nm in a Fusion alpha-FP reader (sold from Packard Bioscience, Dreieich, Germany).

[2] = target: T2, human P-Selectin-IgG-chimera (Homo sapiens, UniProt P16109); test: Sialyl Lewis X Tyrosine Sulfate Assay (sLex TSA), P-selectin; type: binding; details: sLexTSA; for P-Selectin [% inhib.]: in vitro inhibition at 100 μM
T2 sequence (P16109 42-771 limits assumed): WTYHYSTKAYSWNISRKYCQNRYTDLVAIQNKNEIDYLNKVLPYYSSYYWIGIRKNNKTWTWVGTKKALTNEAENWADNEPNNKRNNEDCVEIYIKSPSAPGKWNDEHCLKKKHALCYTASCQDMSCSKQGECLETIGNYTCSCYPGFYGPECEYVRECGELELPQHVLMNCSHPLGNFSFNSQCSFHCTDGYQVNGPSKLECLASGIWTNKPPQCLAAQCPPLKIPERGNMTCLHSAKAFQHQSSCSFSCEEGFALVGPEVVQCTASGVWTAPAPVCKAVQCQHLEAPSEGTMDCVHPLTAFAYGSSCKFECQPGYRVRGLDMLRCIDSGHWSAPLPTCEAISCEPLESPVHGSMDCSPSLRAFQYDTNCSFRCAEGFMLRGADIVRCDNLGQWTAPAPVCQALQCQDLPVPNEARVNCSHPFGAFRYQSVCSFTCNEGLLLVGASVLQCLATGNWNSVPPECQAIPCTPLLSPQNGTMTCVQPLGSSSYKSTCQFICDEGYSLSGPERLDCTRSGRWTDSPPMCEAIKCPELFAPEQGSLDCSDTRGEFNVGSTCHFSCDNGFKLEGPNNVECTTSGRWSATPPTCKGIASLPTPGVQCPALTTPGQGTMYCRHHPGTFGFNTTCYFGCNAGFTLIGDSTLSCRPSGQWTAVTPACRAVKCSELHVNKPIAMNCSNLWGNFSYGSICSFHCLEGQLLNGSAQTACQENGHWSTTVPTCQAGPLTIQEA
Protocol: as §1, §2, §3

[3] = target: T3, human L-Selectin-IgG-chimera (Homo sapiens, UniProt P14151); test: Sialyl Lewis X Tyrosine Sulfate Assay (sLex TSA), L-selectin; type: binding; details: sLexTSA; for L-Selectin [% inhib.]: in vitro inhibition at 100 μM
T3 construct: fused on or other part: human IgG Fc part, captured on the plate by goat anti human Fc antibody; a tag, no second protein
T3 sequence (P14151 39-318 limits assumed): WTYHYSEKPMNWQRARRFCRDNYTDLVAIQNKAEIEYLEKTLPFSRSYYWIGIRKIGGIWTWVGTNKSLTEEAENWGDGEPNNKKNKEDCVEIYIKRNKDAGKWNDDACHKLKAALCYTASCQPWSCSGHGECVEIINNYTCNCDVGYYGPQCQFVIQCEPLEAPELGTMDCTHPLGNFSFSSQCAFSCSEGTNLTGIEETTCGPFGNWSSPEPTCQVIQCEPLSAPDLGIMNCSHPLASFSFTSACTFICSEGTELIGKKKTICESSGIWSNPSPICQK
Protocol: as §1, §2, §3

[4] = tested on: human P-selectin-IgG chimera; test: Flow chamber assay, cell adhesion and rolling under flow conditions, P-selectin; type: cell-based; details: normalized ratio of %-inhibition of compound divided by %-inhibition of bimosiamose; 125 μM compound; HL-60 cells; flow shear 1 dyne/cm^2
Protocol: (§4) Flow Chamber Assay/Cell Adhesion and Rolling Under Flow Conditions
(§5) To assess the capability of compounds to inhibit cell binding under dynamic conditions resembling the flow in a blood vessel, flow chamber assays addressing/testing binding of HL-60 cells/various cell lines to P-selectin, L-selectin and E-selectin chimeric molecules are performed.
(§6) Cell attachment under flow conditions is determined using a parallel flow chamber system. A 35 mm polystyrene culture dish is coated for 1 hour at room temperature with coating buffer (50 mM tris-(hydroxymethyl)aminomethane buffer (Tris), 150 mM NaCl, 2 mM CaCl2; pH 7.4) containing human E- or P-selectin-IgG chimera at concentrations of 2.5 μg/ml or 10 μg/ml, respectively. After removal of the coating solution non specific binding sites are blocked for an additional hour with 1% BSA in coating buffer at room temperature. After washing with assay buffer (“Roswell Park Memorial Institute 1640” (RPMI 1640)+10 mM HEPES) the dish is fitted into a parallel plate laminar flow chamber (sold from Glycotech, Rockville, Md.) and mounted on an inverted phase-contrast microscope (sold from Olympus, Hamburg, Germany) equipped with a CCD camera (JVC) that is connected to a PC. Employing a peristaltic pump (sold from Ismatec, Wertheim-Mondfeld, Germany) the re-circulating system is equilibrated with assay buffer containing 125 μM compound or vehicle control (DMSO). Cells (1 million/ml) are added to the chamber and allowed to distribute for 2 minutes at a high flow rate. The flow rate is then decreased resulting in a calculated flow shear of 1 dyne/cm^2. Video sequences of 10 low power fields are digitally recorded after 5 minutes continuous flow. The percentage of inhibition is calculated from the mean number of cells per field that attached to the coated dish surface in the presence versus absence of compound […].

[5] = tested on: human E-selectin-IgG chimera; test: Flow chamber assay, cell adhesion and rolling under flow conditions, E-selectin; type: cell-based; details: normalized ratio of %-inhibition of compound divided by %-inhibition of bimosiamose; 125 μM compound; HL-60 cells; flow shear 1 dyne/cm^2
Protocol: as §4, §5, §6

Compound | E-Selectin [% inhib.] [1] | P-Selectin [% inhib.] [2] | L-Selectin [% inhib.] [3] | IC50 [2] | P-Selectin [Ratio] [4] | IC50 [3] | E-Selectin [Ratio] [5]
O=C(CCCNC(=O)c1cc(O)cc(O)c1)Nc1cccc(C(=O)O)c1 [Compound 21, 3-[4-(3,5-Dihydroxy-benzoylamino)-butyrylamino]-benzoic acid] | 40.7 % inhib. | 3.0 % inhib. | 18.7 % inhib. | – | – | – | –
COC(=O)c1cccc(NC(=O)CCCNC(=O)c2cc(O)cc(O)c2)c1 [Compound 22, 3-[4-(3,5-Dihydroxy-benzoylamino)-butyrylamino]-benzoic acid methyl ester] | 42.7 % inhib. | 22.7 % inhib. | 21.3 % inhib. | – | – | – | –
O=C(O)CN1CCN(C(=O)CCCNC(=O)c2cc(O)cc(O)c2)CC1 [Compound 23, {4-[4-(3,5-Dihydroxy-benzoylamino)-butyryl]-piperazin-1-yl}-acetic acid] | 10.5 % inhib. | 18.9 % inhib. | 11.6 % inhib. | – | – | – | –
O=C(CCCNC(=O)c1cc(O)cc(O)c1)Nc1ccc(C(=O)O)cc1 [Compound 24, 4-[4-(3,5-Dihydroxy-benzoylamino)-butyrylamino]-benzoic acid] | 35.9 % inhib. | 0.5 % inhib. | 5.9 % inhib. | – | – | – | –
O=C(O)CCc1cccc(NC(=O)CCCNC(=O)c2cc(O)cc(O)c2)c1 [Compound 32] | 35.0 % inhib. | 1.4 % inhib. | 13.1 % inhib. | – | – | – | –
COC(=O)CCc1cccc(NC(=O)CCCNC(=O)c2cc(O)cc(O)c2)c1 [Compound 33] | 38.6 % inhib. | 10.6 % inhib. | 27.3 % inhib. | – | – | – | –
O=C(O)Cc1cccc(NC(=O)CCCNC(=O)c2cc(O)cc(O)c2)c1 [Compound 34] | 41.0 % inhib. | 12.9 % inhib. | 18.1 % inhib. | – | – | – | –
COC(=O)Cc1cccc(NC(=O)CCCNC(=O)c2cc(O)cc(O)c2)c1 [Compound 35] | 40.8 % inhib. | 15.6 % inhib. | 19.4 % inhib. | – | – | – | –
Cc1ccc(C(=O)O)cc1NC(=O)CCCNC(=O)c1cc(O)cc(O)c1 [Compound 36] | 35.8 % inhib. | 1.2 % inhib. | 6.8 % inhib. | – | – | – | –
COC(=O)c1ccc(C)c(NC(=O)CCCNC(=O)c2cc(O)cc(O)c2)c1 [Compound 37] | 38.9 % inhib. | 5.2 % inhib. | 9.5 % inhib. | – | – | – | –
Cc1c(NC(=O)CCCNC(=O)c2cc(O)cc(O)c2)cccc1C(=O)O [Compound 38] | 40.9 % inhib. | 9.4 % inhib. | 19.3 % inhib. | – | – | – | –
COC(=O)Cc1ccc(-c2ccccc2NC(=O)c2cccc(-c3ccc(O)cc3O)c2)s1 [Compound 64, (5-{2-[(2′,4′-Dihydroxy-biphenyl-3-carbonyl)-amino]-phenyl}-thiophen-2-yl)acetic acid methyl ester] | – | – | – | 50 µM | 1.70 Ratio | 62.3 µM | 1.34 Ratio
COc1ccc(-c2cccc(C(=O)Nc3ccccc3-c3ccc(C(=O)O)s3)c2)c(OC)c1 [Compound 66] | – | – | – | 67.8 µM | 0.76 Ratio | 152 µM | 1.21 Ratio
O=C(Nc1ccccc1-c1ccc(C(=O)O)s1)c1cccc(-c2ccc(O)cc2O)c1 [Compound 67] | – | – | – | 201 µM | 0.92 Ratio | 434 µM | 1.60 Ratio
O=C(O)Cc1ccc(-c2ccccc2NC(=O)c2cncc(-c3ccc(O)cc3O)c2)s1 [Compound 73, [5-(2-{[5-(2,4-Dihydroxy-phenyl)-pyridine-3-carbonyl]-amino}-phenyl)-thiophen-2-yl]-acetic acid] | – | – | – | 260 µM | 1.20 Ratio | 502 µM | 0.99 Ratio
COc1cc(OC)cc(-c2cccc(C(=O)Nc3ccccc3-c3ccc(CC(=O)O)s3)c2)c1 [Compound 81, (5-{2-[(3′,5′-Dimethoxy-biphenyl-3-carbonyl)-amino]-phenyl}-thiophen-2-yl)-acetic acid] | – | – | – | 35.3 µM | 1.55 Ratio | 131 µM | 1.27 Ratio
COc1cc(OC)cc(-c2cccc(C(=O)Nc3ccccc3-c3ccc(C(=O)O)s3)c2)c1 [Compound 84, 5-{2-[(3′,5′-Dimethoxy-biphenyl-3-carbonyl)-amino]-phenyl}-thiophene-2-carboxylic acid] | – | – | – | 46.6 µM | 1.02 Ratio | 144 µM | 1.36 Ratio
